Results on 2 molecules are retold here after US20250186408A1, “TREATMENT OF PHARMACORESISTANT EPILEPSY” (Katholieke Universiteit Leuven, priority 2021, published 2025).

One assay addresses T1, ADRA2A (Homo sapiens, UniProt P08913).
T1 sequence (P08913 1-465): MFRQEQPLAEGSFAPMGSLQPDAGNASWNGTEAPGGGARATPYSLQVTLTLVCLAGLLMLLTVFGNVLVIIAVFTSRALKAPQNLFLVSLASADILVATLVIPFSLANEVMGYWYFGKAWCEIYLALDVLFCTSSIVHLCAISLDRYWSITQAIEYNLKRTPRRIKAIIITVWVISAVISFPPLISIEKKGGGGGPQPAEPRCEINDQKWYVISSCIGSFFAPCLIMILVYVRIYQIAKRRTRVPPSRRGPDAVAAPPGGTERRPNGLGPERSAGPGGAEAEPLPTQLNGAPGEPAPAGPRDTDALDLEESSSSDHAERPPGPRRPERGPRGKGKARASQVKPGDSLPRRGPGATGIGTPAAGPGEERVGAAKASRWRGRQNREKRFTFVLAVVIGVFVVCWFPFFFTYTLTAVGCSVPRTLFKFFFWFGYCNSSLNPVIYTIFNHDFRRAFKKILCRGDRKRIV
The assay is described as follows: cAMP ADRA2A Antagonist. The conditions noted are these: for Emax: read-out: Max response.

Another assay addresses T2, CHRM1 (Homo sapiens, UniProt P11229).
T2 sequence (P11229 1-460): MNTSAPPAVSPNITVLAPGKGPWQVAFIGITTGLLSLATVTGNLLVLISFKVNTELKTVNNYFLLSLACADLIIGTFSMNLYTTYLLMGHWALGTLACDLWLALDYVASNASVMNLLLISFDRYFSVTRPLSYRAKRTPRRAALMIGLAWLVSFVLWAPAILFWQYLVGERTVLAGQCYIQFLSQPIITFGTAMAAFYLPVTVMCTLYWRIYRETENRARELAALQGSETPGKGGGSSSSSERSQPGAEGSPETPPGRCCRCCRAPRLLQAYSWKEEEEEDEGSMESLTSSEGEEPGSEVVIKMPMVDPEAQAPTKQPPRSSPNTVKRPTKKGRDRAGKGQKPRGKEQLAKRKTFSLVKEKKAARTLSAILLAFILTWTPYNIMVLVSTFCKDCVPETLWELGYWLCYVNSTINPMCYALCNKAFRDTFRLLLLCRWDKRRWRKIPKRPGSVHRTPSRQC
The experiment in a line: Calcium Flux CHRM1 Antagonist. The conditions noted are these: for Emax: read-out: Max response.

In the next assay the target is T3, COX1 (Homo sapiens, UniProt P23219).
T3 construct: purchased BPS Bioscience
The experiment in a line: Enzymatic COX1 Inhibitor. Type of assay: biochemical. The conditions noted are these: for IC50: read-out: RC50, result type IC50; for Emax: read-out: Max response. Here is the method: Enzyme preparations were sourced from various vendors-AChE (R&D Systems), COX1 and COX2 (BPS Bioscience), MAOA (Sigma), PDE3A and PDE4D2 (Signal Chem). AChE: enzyme and test compound were pre-incubated for 15 min at RT before substrate addition. Acetylthiocholine and DTNB were added and incubated at RT for 30 min. Signal was detected by measuring absorbance at 405 nm. COX1 and COX2: enzyme stocks were diluted in assay buffer (40 mM Tris-HCl, 1×PBS, 0.5 mM Phenol, 0.01% Tween 20 and 10 nM Hematin) and allowed to equilibrate with compounds at RT for 30 min (binding incubation). Arachidonic acid (1.7 μM) and Ampliflu Red (2.5 μM) were prepared and dispended into a reaction plate. Plates were read immediately on a fluorimeter with the emission detection at 590 nm and excitation wavelength 544 nm. MAOA: enzyme and test compound were pre-incubated for 15 min at 37° C. before substrate addition. The reaction was initiated by addition of kynuramine and incubated at 37° C. for 30 min. The reaction was terminated by addition of NaOH. The amount of 4-hydroquinoline formed was determined through spectrofluorometric readout with the emission detection at 380 nm and excitation wavelength 310 nm. PDE3A and PDE4D2: enzyme and test compound were pre-incubated for 15 min at RT before substrate addition. cAMP substrate (at a concentration equal to EC80) was added and incubated at RT for 30 min. Enzyme reaction was terminated by addition of 9 mM IBMX. Signal was detected using the HitHunter® cAMP detection kit. Microplates were transferred to a PerkinElmer Envision™ instrument and read out as described for each assay. […] For enzyme activity assays, percentage inhibition was calculated using the following equation: […]

The target in another assay is T4, ROCK1 (Homo sapiens, UniProt Q13464).
T4 construct: purchased Eurofins DiscoverX Corporation 87-1003DR; host or cells: E. coli BL21-derived host (T7 phage) or HEK-293
The experiment in a line: Binding (KINOMEscan) ROCK1 Inhibitor. The conditions noted are these: for IC50: read-out: RC50, result type IC50; for Emax: read-out: Max response. As for the experimental part: For most assays, kinase-tagged T7 phage strains were grown in parallel in 24-well blocks in an E. coli host derived from the BL21 strain. E. coli were grown to log-phase and infected with T7 phage from a frozen stock (multiplicity of infection=0.4) and incubated with shaking at 32° C. until lysis (90-150 min). The lysates were centrifuged (6,000×g) and filtered (0.2 μm) to remove cell debris. The remaining kinases were produced in HEK-293 cells and subsequently tagged with DNA for qPCR detection. Streptavidin-coated magnetic beads were treated with biotinylated small molecule ligands for 30 min at RT to generate affinity resins for kinase assays. The liganded beads were blocked with excess biotin and washed with blocking buffer (SeaBlock (Pierce), 1% BSA, 0.05% Tween 20, 1 mM DTT) to remove unbound ligand and to reduce non-specific phage binding. […] All reactions were performed in polypropylene 384-well plates in a final volume of 0.02 mL. […] The beads were then re-suspended in elution buffer (1×PBS, 0.05% Tween 20, 0.5 μM non-biotinylated affinity ligand) and incubated at RT with shaking for 30 min. The kinase concentration in the eluates was measured by qPCR.
The kinase concentration in the eluates was measured by qPCR. qPCR reactions were assembled by adding 2.5 μL of kinase eluate to 7.5 μL of qPCR master mix containing 0.15 μM amplicon primers and 0.15 μM amplicon probe. The qPCR protocol consisted of a 10 min hot start at 95° C., followed by 35 cycles of 95° C. for 15 sec, 60° C. for 1 min.
Binding constants (Kds) were calculated with a standard dose-response curve using the Hill equation: […]

Molecules are shown by their SMILES. Like-named read-outs stand apart in the source and are kept apart here.

T4 sequence (Q13464 whole entry): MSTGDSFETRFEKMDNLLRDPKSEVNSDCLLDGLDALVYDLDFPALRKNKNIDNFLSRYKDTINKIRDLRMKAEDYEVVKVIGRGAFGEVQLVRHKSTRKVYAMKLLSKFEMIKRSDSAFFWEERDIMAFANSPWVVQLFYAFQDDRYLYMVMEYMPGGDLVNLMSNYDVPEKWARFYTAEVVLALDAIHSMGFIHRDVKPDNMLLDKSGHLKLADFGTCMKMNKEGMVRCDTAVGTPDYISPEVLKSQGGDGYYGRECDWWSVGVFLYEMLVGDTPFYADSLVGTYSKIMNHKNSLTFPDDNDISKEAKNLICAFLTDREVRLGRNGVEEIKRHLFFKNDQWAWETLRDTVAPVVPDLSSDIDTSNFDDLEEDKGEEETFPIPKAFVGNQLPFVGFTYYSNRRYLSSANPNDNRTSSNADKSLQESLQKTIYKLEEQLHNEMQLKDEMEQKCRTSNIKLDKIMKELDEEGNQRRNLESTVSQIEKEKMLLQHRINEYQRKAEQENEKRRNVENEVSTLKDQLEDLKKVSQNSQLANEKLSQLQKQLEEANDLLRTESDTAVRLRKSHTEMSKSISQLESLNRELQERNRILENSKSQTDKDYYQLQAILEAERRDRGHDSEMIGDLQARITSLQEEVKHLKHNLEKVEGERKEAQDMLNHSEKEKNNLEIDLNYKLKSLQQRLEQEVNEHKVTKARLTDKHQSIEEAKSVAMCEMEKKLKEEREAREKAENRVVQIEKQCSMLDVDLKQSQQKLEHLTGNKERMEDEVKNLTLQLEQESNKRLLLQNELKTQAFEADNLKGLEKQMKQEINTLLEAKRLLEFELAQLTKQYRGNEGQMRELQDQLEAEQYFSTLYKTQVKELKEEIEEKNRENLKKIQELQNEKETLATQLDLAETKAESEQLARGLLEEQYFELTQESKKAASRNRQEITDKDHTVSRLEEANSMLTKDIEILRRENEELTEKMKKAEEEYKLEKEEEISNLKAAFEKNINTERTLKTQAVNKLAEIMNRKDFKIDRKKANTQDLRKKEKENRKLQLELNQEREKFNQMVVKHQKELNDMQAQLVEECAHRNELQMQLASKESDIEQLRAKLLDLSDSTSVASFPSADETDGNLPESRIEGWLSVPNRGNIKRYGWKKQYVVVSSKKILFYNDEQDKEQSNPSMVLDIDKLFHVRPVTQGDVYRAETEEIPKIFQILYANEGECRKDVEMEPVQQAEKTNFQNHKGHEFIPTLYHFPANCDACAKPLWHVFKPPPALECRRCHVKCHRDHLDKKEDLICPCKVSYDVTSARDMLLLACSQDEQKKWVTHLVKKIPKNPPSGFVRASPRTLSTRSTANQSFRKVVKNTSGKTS
T3 sequence (P23219 24-599): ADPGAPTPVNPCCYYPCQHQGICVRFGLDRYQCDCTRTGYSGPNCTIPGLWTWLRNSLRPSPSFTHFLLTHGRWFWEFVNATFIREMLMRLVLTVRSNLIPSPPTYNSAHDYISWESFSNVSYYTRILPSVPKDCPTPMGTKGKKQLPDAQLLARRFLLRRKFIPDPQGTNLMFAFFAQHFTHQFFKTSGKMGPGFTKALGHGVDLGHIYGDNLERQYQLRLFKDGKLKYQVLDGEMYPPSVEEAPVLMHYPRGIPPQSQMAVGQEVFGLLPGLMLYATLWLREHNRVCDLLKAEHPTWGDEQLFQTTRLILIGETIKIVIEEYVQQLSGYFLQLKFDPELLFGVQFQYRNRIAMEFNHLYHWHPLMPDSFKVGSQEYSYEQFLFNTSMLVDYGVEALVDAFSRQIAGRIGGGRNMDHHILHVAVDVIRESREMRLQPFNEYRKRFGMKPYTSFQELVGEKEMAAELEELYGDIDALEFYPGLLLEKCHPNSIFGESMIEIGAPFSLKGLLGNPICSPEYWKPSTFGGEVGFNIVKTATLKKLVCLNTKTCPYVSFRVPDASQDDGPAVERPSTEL
Experimental for ADRA2A: In vitro pharmacological profiling of compounds was done against 78 functional assays for 47 common off-targets (30) by Eurofins DiscoverX Corporation (Fremont, CA, USA) using their SAFETYscan E/IC50 ELECT service (Cat Ref 87-1003DR, Safety47 Panel Dose Response). […] Compounds were tested in a range of 10 concentrations, following a 3-fold serial dilution, starting from 10 μM.
cAMP Hunter cell lines were expanded from freezer stocks. Prior to testing, cells were seeded in a total volume of 20 μL into white walled 384-well microplates and incubated at 37° C. cAMP modulation was determined using the DiscoverX HitHunter cAMP XS+ assay. For Gs agonist determination, cells were incubated with sample to induce response. For Gi agonist determination, cells were incubated with sample in the presence of EC80 forskolin to induce response. For both conditions, media was aspirated from cells and replaced with 15 μL 2:1 HBSS/10 mM HEPES:cAMP XS+ Ab reagent. Intermediate dilution of sample stocks was performed to generate 4× sample in assay buffer (containing 4×EC80 forskolin in the case of antagonist determination). 5 μL of 4× sample was added to cells and incubated at 37° C. or room temperature (RT) for 30 or 60 min. Final assay vehicle concentration was 1%. For antagonist determination, cells were pre-incubated with sample followed by agonist challenge at the EC80 concentration. Media was aspirated from cells and replaced with 10 μL 1:1 HBSS/HEPES:cAMP XS+ Ab reagent. 5 μL of 4× compound was added to the cells and incubated at 37° C. or RT for 30 min. 5 μL of 4×EC80 agonist was added to the cells and incubated at 37° C. or RT for 30 or 60 min. For Gi coupled GPCRs, EC80 forskolin was included. […] Microplates were read following signal generation with a PerkinElmer Envision™ instrument for chemiluminescent signal detection. Compound activity was analyzed using CBIS data analysis suite (ChemInnovation, CA). For Gs agonist mode assays, percentage activity was calculated using the following equation:
Experimental for CHRM1: In vitro pharmacological profiling of compounds was done against 78 functional assays for 47 common off-targets (30) by Eurofins DiscoverX Corporation (Fremont, CA, USA) using their SAFETYscan E/IC50 ELECT service (Cat Ref 87-1003DR, Safety47 Panel Dose Response). […] Compounds were tested in a range of 10 concentrations, following a 3-fold serial dilution, starting from 10 μM. The assays were performed utilizing the PathHunter enzyme fragment complementation (EFC) technology, FLIPR®-based cellular screening assays, and KINOMEscan kinase binding assays.
Prior to testing, cells (10,000 cells/well) were expanded from freezer stocks and seeded into a total volume of 50 μL into black walled, clear-bottom, Poly-D-lysine coated 384-well microplates and incubated at 37° C. […] Assays were performed in 1× dye loading buffer consisting of 1× Dye (DiscoverX, Calcium No Wash^PLUS kit, Catalog No. 90-0091), 1× Additive A and 2.5 mM Probenecid in HBSS/20 mM HEPES. Probenecid was prepared fresh. Prior to testing, media was aspirated from cells and replaced with 25 μL dye loading buffer. Cells were incubated for 45 min at 37° C. and then 20 min at RT. For agonist determination, 25 μL of 2× compound in HBSS/20 mM HEPES was added using a FLIPR Tetra (MDS). For antagonist determination, cells were pre-incubated with sample followed by agonist challenge at the EC80 concentration. 25 μL of 2× sample was added and cells were incubated for 30 min at RT in the dark to equilibrate plate temperature. After incubation, antagonist determination was initiated by addition of 25 μL of 1× compound with 3×EC80 agonist using FLIPR. For both agonist and antagonist formats, activity was measure on a FLIPR Tetra (MDS). Calcium mobilization was monitored for 2 min with a 5 sec baseline read.
FLIPR read—Area under the curve, was calculated for the entire 2 min read. Compound activity was analysed using CBIS data analysis suite (ChemInnovation, CA).

As for `CC(C)(C)c1ccc(C#CC(O)c2ccccc2)cc1` (racemic) [Compound 3.3, rac-3-(4-(tert-butyl)phenyl)-1-phenylprop-2-yn-1-ol], the IC50 at ADRA2A, on CHRM1, on COX1 (Enzymatic COX1 Inhibitor) and at ROCK1 (Binding ROCK1 Inhibitor) was greater than 10 µM each time. The Emax at ADRA2A stood at 13%; on CHRM1, 0%; at COX1, 9.9%; at ROCK1 it was 0%.
Take `Clc1cccc(C#Cc2n[nH]c3ncccc23)c1` [Compound 10.1, 3-((3-chlorophenyl)ethynyl)-1H-pyrazolo[3,4-b]pyridine]: the IC50 against ADRA2A, at CHRM1, at COX1 (Enzymatic COX1 Inhibitor) and on ROCK1 (Binding ROCK1 Inhibitor) was greater than 10 µM throughout. Moreover, the Emax on ADRA2A was determined as 0%; on CHRM1, 5.5%; at COX1 (Enzymatic COX1 Inhibitor), 0%; at ROCK1 (Binding ROCK1 Inhibitor) it was 4.2%.

What is called IC50 is the concentration at which inhibition is half-maximal.
